Source: patent US20120252729A1, “PTH-CONTAINING THERAPEUTIC/PROPHYLACTIC AGENT FOR OSTEOPOROSIS, CHARACTERIZED IN THAT PTH IS ADMINISTERED ONCE A WEEK IN A UNIT DOSE OF 100 TO 200 UNITS” (ASAHI KASEI PHARMA CORPORATION, priority 2009, published 2012)

Experiments:
[1] = system: patients having prednisone-induced osteoporosis complicated by arthralgia; settings: daily administration; cited from earlier work
[2] = system: nausea and vomiting associated with administration of the test drug; assay: Working Example 2: prescriptions for nausea and vomiting associated with administration of the test drug; settings: given before test drug
Description: The administration period and efficacy of various drugs to treat nausea and vomiting associated with administration of the test drug were studied.

[3] = PTH 20 μg/day; blood samples 4 to 6 hours after administration; cited from earlier work

For `CC[C@H](C)[C@H](NC(=O)[C@H](CCC(=O)O)NC(=O)[C@H](CO)NC(=O)[C@@H](NC(=O)[C@@H](N)CO)C(C)C)C(=O)N[C@@H](CCC(N)=O)C(=O)N[C@@H](CC(C)C)C(=O)N[C@@H](CCSC)C(=O)N[C@@H](Cc1cnc[nH]1)C(=O)N[C@@H](CC(N)=O)C(=O)N[C@@H](CC(C)C)C(=O)NCC(=O)N[C@@H](CCCCN)C(=O)N[C@@H](Cc1cnc[nH]1)C(=O)N[C@@H](CC(C)C)C(=O)N[C@@H](CC(N)=O)C(=O)N[C@@H](CO)C(=O)N[C@@H](CCSC)C(=O)N[C@@H](CCC(=O)O)C(=O)N[C@@H](CCCN=C(N)N)C(=O)N[C@H](C(=O)N[C@@H](CCC(=O)O)C(=O)N[C@@H](Cc1c[nH]c2ccccc12)C(=O)N[C@@H](CC(C)C)C(=O)N[C@@H](CCCN=C(N)N)C(=O)N[C@@H](CCCCN)C(=O)N[C@@H](CCCCN)C(=O)N[C@@H](CC(C)C)C(=O)N[C@@H](CCC(N)=O)C(=O)N[C@@H](CC(=O)O)C(=O)N[C@H](C(=O)N[C@@H](Cc1cnc[nH]1)C(=O)N[C@@H](CC(N)=O)C(=O)N[C@@H](Cc1ccccc1)C(=O)O)C(C)C)C(C)C` [Forteo, teriparatide (rDNA origin)], the “Bone strengthening effect compared with Fosamax” value [1] is listed as “stronger bone strengthening effect than Fosamax”.
In the case of `O=c1[nH]c2ccccc2n1CCCN1CCC(n2c(=O)[nH]c3cc(Cl)ccc32)CC1` [Nauzelin, domperidone], the Effective or ineffective ([2]; event: nausea) is reported as “Effective” and the Effective or ineffective ([2]; event: vomiting) is reported as “Effective”.
In the case of “PTH: PTH (parathyroid hormone) preparation given daily (20 μg/day) in cited osteoporosis trials”, the Patients with hypercalcemia [3] is listed as 11% and the “Patients with persistent hypercalcemia” value [3] is listed as 3%.
